Active and inactive are the calls of the source. No cut-off for these calls is given here.
How the values were obtained:
[1] = target: T1, DNA topoisomerase 2-alpha (Homo sapiens, UniProt P11388); experiment: Inhibition of etoposide-enhanced human topoisomerase 2alpha-mediated DNA cleavage at 100 to 400 uM incubated for 2 mins in presence of 100 uM etoposide by ethidium bromide staining based gel electrophoresis method
[2] = target: T1, DNA topoisomerase 2-alpha; experiment: Inhibition of human topoisomerase 2alpha assessed as reduction in enzyme-mediated relaxation of negatively supercoiled pRYG DNA at 100 uM incubated for 30 mins by ethidium bromide staining based gel electrophoresis method
[3] = target: T1, DNA topoisomerase 2-alpha; experiment: Inhibition of human topoisomerase 2alpha assessed as reduction in enzyme-mediated kinetoplast DNA decatenation at 100 uM incubated for 30 mins by agarose gel electrophoresis method
HEK293 = experiment: Cytotoxicity against HEK293 cells assessed as reduction in cell viability after 48 hrs by MTT assay; assay type: functional; details: Homo sapiens; for CC50: HEK293, 48 h, read-out: LC50 (the source's name)
[4] = Cytotoxicity against African green monkey Vero cells assessed as cell viability at 75 uM after 48 hrs by MTT assay; assay type: cell-based; details: chlorocebus sabaeus, read-out: Activity
[5] = target: T2, DNA topoisomerase 1 (Homo sapiens) (UniProt P11387); experiment: Inhibition of human topoisomerase-1 assessed as reduction in enzyme-mediated relaxation of negatively supercoiled pRYG DNA at 100 uM incubated for 30 mins by ethidium bromide staining based gel electrophoresis method
T2 sequence (whole entry): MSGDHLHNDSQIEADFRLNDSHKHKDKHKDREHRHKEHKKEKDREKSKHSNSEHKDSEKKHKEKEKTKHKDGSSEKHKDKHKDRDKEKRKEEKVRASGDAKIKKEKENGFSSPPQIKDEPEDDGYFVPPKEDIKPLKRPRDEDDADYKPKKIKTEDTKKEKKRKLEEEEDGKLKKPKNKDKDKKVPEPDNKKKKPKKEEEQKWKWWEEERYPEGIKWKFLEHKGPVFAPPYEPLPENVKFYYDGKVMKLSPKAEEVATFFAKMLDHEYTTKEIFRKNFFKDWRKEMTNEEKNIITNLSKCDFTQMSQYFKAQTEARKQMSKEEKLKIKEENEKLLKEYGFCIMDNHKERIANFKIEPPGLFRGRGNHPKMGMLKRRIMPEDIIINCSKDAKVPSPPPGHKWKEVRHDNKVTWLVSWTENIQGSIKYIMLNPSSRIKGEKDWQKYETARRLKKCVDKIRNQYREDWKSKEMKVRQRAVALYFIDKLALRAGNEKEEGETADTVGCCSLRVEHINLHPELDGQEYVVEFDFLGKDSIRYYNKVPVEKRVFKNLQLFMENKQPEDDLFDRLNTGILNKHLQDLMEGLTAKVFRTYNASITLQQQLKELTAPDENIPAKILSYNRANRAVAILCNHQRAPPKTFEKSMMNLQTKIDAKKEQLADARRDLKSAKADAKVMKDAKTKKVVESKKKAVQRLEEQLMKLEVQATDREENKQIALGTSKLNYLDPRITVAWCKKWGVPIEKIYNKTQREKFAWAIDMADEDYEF

[6] = target: T1, DNA topoisomerase 2-alpha; experiment: Poisoning activity against human topoisomerase 2alpha assessed as induction of linear DNA formation at 100 uM incubated for 20 mins using small circular supercoiled pHOT DNA substrate by ethidium bromide staining based gel electrophoresis method
[7] = target: T1, DNA topoisomerase 2-alpha; details: HEK293, 45 uM
Description: Inhibition of topoisomerase 2alpha in HEK293 cells at 45 uM incubated for 48 hrs using TOP-FLASH plasmid substrate by ethidium bromide staining based agarose gel electrophoresis method

[8] = Cytotoxicity against African green monkey Vero cells assessed as reduction in cell viability after 48 hrs by MTT assay; assay type: cell-based; details: chlorocebus sabaeus, read-out: LC50
[9] = target: T1, DNA topoisomerase 2-alpha; experiment: Inhibition of etoposide-enhanced human topoisomerase 2alpha-mediated DNA cleavage at 100 to 400 uM pre-incubated for 2 mins with 100 uM etoposide followed by compound addition by ethidium bromide staining based gel electrophoresis method
[10] = Binding affinity to TOP-FLASH TCF/LEF transcription factor DNA (unknown origin) at 5 to 25 uM incubated for 2 hrs by UV-visible spectrophotometry
[11] = target: T1, DNA topoisomerase 2-alpha; experiment: Inhibition of human topoisomerase 2alpha assessed as reduction in enzyme-mediated kinetoplast DNA decatenation incubated for 30 mins by agarose gel electrophoresis method
Nucleic Acid = experiment: Induction of DNA intercalation of Escherichia coli pUC19 DNA at 100 uM by ethidium bromide staining based agarose gel electrophoresis method; assay type: nucleic-acid assay
[12] = target: T1, DNA topoisomerase 2-alpha; experiment: Inhibition of topoisomerase 2alpha in HEK293 cells at 5 to 15 uM incubated for 48 hrs using TOP-FLASH plasmid substrate by ethidium bromide staining based agarose gel electrophoresis method; assay type: cell-based
[13] = target: T1, DNA topoisomerase 2-alpha; experiment: Inhibition of etoposide-enhanced human topoisomerase 2alpha-mediated DNA cleavage at 100 to 400 uM incubated for 2 mins with simultaneous addition of 100 uM etoposide by ethidium bromide staining based gel electrophoresis method
[14] = target: T1, DNA topoisomerase 2-alpha; experiment: Inhibition of human topoisomerase 2alpha ATPase activity assessed as inorganic phosphate release at 100 uM using pUC19 DNA substrate by malachite green reagent based ATPase inhibition assay
[15] = target: T1, DNA topoisomerase 2-alpha; experiment: Inhibition of etoposide-enhanced human topoisomerase 2alpha-mediated DNA cleavage at 100 to 400 uM pre-incubated for 2 mins before 100 uM etoposide addition by ethidium bromide staining based gel electrophoresis method

T1 sequence (P11388 whole entry): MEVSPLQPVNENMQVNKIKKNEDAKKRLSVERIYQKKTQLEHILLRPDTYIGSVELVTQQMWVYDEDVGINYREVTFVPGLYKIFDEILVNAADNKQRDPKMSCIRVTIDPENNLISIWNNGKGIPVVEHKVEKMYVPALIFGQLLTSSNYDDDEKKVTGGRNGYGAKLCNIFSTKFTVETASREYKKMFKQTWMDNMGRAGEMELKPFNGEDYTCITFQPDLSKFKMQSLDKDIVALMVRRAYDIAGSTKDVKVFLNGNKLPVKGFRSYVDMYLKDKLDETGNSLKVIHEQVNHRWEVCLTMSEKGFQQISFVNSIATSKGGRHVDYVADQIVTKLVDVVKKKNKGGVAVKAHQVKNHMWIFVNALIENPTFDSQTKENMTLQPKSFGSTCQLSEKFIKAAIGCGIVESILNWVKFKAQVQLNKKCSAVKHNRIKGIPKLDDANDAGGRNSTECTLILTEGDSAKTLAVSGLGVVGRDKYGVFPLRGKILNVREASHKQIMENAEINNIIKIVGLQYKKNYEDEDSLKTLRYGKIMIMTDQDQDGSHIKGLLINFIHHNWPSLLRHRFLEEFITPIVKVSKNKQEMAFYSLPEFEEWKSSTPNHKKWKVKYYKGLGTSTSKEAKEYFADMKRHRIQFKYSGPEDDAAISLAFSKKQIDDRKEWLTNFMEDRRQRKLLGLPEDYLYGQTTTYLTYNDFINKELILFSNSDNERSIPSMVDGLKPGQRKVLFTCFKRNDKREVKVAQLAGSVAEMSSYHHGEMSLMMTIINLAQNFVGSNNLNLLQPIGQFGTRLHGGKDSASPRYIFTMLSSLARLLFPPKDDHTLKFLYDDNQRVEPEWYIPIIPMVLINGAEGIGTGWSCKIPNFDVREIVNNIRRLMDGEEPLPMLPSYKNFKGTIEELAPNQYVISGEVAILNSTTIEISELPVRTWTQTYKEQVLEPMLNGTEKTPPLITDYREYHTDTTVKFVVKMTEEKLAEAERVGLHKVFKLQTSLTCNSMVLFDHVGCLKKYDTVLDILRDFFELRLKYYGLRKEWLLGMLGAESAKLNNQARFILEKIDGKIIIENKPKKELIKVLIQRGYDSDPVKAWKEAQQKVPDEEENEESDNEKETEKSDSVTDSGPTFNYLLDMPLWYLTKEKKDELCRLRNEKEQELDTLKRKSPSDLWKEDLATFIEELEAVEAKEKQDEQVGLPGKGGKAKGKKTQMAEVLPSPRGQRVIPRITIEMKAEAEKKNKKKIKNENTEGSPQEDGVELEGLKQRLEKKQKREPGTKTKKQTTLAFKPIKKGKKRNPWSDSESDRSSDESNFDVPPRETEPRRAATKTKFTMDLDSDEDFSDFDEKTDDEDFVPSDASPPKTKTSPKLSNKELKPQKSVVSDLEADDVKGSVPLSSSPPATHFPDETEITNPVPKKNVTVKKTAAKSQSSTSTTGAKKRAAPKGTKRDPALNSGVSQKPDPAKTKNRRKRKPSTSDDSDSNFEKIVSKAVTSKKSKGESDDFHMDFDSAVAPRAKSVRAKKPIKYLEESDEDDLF

SMILES | inhibition [2] | inhibition [3] | Activity (HEK293) | CC50 (HEK293) | viability at 48 h, 75 µM [4] | inhibition [5] | Activity [6] | further results
CC(C)(C)Nc1c(-c2ccc(C(=O)O)cc2)nc2ccccn12 | – | – | – | – | – | – | – | inhibition [1]: inactive
COc1ccc(-c2ccc(-c3nc4ccccn4c3NC(C)(C)C)cc2)cc1 | inactive | inactive | – | – | – | – | – | –
CC(C)(C)Nc1c(-c2ccc(-c3ccc(F)cc3)cc2)nc2cnccn12 | inactive | inactive | – | – | – | – | – | –
Cc1ccc(-c2ccc3nc(-c4ccc(Cl)cc4)c(NC(C)(C)C)n3c2)cc1 | Active | Active | Dose-dependent effect | 15 µM | > 30% | inactive | inactive | –
COc1ccc(-c2nc3ccc(-c4ccccc4)cn3c2NC(C)(C)C)cc1 | Active | Active | Dose-dependent effect | 13 µM | > 30% | inactive | inactive | –
CC(C)(C)Nc1c(-c2ccc(Cl)cc2)nc2ccc(-c3ccc(F)cc3)cn12 | Active | Active | Dose-dependent effect | 8 µM | > 30% | inactive | inactive | –
COc1cc([C@@H]2c3cc4c(cc3[C@@H](O[C@@H]3O[C@@H]5CO[C@@H](C)O[C@H]5[C@H](O)[C@H]3O)[C@H]3COC(=O)[C@H]23)OCO4)cc(OC)c1O [ETOPOSIDE] | – | – | – | 55 µM | – | – | Active | inhibition [7]: Active; CC50 at 48 h [8]: 75 µM
COc1ccc(-c2ccc3nc(-c4ccc(Cl)cc4)c(NC(C)(C)C)n3c2)cc1 | Active | Active | Dose-dependent effect | 10 µM | > 30% | inactive | inactive | –
CC(C)(C)Nc1c(-c2ccc(-c3ccccc3)cc2)nc2cnccn12 | Active | Active | – | – | – | – | – | –
CC(C)(C)Nc1c(-c2ccc(Cl)cc2)nc2ccc(-c3ccccc3)cn12 | Active | Active | Dose-dependent effect | 10 µM | > 30% | inactive | inactive | inhibition [9]: Active; Activity [10]: inactive; IC50 [11]: 55.4 µM; Activity (Nucleic Acid): inactive; inhibition [12]: Active; inhibition [13]: Active; inhibition [14]: Active; inhibition [15]: Dose-dependent effect
CC(C)(C)Nc1c(-c2ccc(-c3ccc(Cl)cc3)cc2)nc2ccccn12 | inactive | inactive | – | – | – | – | – | –
CC(=O)c1ccc(-c2ccc(-c3nc4cnccn4c3NC(C)(C)C)cc2)cc1 | Active | Active | – | – | – | – | – | –
